ChEMBL document CHEMBL5465560, “Selectivity Literature for EUbOPEN Chemogenomic Library” (2024)
One block for each compound: values may come before it.

Experiments:
[1] = molecular target: T1, Casein kinase I isoform alpha-like (Homo sapiens) (UniProt Q8N752); experiment: Selectivity interaction (Kinase panel (Z-LYTE Assay)) EUB0001632a CSNK1A1L; conditions: at 10 µM
T1 sequence (whole entry): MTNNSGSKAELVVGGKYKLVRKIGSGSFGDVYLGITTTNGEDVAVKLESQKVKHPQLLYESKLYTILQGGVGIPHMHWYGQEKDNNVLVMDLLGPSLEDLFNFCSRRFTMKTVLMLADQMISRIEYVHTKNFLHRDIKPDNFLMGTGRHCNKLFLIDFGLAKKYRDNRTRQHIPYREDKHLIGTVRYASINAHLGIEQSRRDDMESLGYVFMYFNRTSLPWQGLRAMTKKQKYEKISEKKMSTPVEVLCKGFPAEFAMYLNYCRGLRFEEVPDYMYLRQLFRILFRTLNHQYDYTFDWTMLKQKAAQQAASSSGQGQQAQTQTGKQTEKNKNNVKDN

[2] = molecular target: Tyrosine-protein kinase Blk (Homo sapiens) (UniProt P51451); conditions: at 10 µM
Sequence of Tyrosine-protein kinase Blk (Homo sapiens) (P51451 2-505 limits assumed): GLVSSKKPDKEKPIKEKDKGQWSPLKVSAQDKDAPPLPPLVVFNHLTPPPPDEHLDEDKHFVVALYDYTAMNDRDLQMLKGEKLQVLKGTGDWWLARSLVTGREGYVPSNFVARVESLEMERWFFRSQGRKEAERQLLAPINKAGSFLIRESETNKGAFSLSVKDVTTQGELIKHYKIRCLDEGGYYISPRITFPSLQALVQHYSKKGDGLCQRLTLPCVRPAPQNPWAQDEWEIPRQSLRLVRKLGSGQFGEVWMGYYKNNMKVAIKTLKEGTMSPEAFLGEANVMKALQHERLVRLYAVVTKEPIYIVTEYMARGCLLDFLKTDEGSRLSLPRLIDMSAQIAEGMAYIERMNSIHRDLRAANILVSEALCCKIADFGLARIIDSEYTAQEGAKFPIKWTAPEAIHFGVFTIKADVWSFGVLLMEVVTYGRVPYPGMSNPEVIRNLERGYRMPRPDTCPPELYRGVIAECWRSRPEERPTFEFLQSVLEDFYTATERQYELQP

[3] = molecular target: T2, Protein kinase C epsilon type (Homo sapiens) (UniProt Q02156); experiment: Selectivity interaction (ProQinase) EUB0000171b PRKCE
T2 sequence (whole entry): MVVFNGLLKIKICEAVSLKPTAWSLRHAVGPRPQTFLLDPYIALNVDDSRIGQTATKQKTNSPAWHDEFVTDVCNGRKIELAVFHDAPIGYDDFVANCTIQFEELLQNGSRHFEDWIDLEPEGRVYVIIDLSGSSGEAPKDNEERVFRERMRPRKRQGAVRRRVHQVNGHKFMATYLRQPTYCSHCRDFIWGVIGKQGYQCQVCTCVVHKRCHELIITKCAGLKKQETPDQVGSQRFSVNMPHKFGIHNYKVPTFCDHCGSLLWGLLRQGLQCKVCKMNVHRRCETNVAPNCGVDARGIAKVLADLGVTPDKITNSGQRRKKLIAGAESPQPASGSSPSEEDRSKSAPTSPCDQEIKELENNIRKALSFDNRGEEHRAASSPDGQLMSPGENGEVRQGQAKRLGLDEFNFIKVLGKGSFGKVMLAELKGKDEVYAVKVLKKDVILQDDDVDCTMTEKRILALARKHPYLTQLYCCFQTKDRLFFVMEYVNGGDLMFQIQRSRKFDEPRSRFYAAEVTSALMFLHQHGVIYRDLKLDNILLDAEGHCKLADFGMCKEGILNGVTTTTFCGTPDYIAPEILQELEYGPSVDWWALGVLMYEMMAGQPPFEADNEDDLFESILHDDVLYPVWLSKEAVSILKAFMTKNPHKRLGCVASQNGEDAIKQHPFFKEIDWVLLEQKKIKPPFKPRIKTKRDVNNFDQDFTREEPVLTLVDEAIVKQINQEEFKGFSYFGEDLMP

[4] = molecular target: Non-receptor tyrosine-protein kinase TYK2 (Homo sapiens, UniProt P29597); experiment: Selectivity interaction (KinomeScan (DiscoverX)) EUB0000695a TYK2; conditions: at 100 nM
Sequence of Non-receptor tyrosine-protein kinase TYK2 (P29597 whole entry): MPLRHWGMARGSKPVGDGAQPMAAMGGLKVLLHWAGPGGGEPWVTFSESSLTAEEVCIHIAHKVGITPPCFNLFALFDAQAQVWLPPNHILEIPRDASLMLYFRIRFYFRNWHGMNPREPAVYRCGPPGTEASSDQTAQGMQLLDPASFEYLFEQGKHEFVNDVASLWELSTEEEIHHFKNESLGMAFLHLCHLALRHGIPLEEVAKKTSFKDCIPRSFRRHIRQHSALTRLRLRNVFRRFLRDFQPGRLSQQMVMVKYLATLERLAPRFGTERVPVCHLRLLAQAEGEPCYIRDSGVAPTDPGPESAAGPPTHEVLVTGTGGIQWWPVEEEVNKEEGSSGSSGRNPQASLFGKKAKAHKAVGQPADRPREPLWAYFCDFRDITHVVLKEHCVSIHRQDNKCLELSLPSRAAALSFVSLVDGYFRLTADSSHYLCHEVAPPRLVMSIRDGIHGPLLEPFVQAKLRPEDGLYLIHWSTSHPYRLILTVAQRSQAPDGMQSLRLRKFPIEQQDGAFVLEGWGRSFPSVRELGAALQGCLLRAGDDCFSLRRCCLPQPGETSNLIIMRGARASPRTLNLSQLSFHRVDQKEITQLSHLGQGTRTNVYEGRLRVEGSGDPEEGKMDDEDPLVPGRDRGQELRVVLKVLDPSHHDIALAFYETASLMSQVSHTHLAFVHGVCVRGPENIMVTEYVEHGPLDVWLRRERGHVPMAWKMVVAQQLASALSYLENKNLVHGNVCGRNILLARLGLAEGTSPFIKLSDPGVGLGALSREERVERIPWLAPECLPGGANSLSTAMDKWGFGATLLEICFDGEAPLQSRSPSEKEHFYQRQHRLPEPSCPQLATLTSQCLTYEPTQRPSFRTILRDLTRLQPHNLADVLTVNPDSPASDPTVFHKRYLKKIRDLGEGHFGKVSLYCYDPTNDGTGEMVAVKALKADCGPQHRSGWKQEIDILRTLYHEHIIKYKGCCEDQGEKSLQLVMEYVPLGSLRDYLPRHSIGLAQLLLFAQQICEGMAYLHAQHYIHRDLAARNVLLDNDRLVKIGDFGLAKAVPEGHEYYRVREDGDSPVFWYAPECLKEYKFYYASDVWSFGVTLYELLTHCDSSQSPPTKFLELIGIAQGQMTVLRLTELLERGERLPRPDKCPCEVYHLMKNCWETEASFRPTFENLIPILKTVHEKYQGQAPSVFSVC

[5] = molecular target: T3, Ephrin type-A receptor 3 (Homo sapiens) (UniProt P29320); experiment: Selectivity interaction (KinomeScan (DiscoverX)) EUB0000595a EPHA3; conditions: at 10 µM
T3 sequence (whole entry): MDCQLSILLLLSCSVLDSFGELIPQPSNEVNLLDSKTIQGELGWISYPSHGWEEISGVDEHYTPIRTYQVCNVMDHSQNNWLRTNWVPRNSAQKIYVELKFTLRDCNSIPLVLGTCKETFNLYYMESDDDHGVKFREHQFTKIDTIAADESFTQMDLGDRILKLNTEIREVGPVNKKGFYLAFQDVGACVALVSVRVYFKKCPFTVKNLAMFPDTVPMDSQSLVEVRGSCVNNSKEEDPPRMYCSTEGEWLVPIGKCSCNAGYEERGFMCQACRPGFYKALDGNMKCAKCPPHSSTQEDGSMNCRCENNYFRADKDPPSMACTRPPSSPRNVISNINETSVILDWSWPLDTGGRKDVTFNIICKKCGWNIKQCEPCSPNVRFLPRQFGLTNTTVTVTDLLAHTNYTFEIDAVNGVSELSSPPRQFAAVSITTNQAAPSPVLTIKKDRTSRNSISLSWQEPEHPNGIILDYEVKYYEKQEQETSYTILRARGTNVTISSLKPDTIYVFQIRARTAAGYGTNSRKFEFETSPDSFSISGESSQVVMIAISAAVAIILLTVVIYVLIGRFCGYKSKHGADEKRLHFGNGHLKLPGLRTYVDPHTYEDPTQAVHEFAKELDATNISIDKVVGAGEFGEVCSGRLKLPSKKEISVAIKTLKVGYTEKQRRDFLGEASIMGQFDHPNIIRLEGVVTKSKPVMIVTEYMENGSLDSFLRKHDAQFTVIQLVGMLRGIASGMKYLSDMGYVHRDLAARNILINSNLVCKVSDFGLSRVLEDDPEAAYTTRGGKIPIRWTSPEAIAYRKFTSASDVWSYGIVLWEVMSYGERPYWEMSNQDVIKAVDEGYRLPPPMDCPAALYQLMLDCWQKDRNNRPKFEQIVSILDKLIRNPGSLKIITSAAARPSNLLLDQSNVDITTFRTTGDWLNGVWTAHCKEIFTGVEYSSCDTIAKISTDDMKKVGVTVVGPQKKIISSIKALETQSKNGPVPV

[6] = molecular target: T4, 3-phosphoinositide-dependent protein kinase 1 (Homo sapiens) (UniProt O15530); experiment: Selectivity interaction (Ambit KINOMEscan and KiNATiv profiling in Jurkat cells) EUB0000090b PDPK1; format: cell-based; conditions: at 1 µM
T4 sequence (whole entry): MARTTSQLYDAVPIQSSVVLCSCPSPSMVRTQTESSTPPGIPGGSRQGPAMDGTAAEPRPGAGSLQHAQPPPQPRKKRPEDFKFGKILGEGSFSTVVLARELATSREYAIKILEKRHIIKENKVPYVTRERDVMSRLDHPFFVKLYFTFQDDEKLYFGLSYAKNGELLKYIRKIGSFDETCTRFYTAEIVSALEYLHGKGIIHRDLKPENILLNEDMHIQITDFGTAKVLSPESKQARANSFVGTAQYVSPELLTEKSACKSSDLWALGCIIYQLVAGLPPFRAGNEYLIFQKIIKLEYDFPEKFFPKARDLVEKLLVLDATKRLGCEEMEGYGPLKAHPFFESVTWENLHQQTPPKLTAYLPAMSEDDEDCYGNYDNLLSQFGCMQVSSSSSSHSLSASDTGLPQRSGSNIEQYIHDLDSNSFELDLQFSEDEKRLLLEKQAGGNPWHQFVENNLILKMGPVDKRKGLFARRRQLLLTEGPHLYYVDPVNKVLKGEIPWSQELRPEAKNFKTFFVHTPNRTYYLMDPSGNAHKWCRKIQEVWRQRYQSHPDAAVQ

[7] = molecular target: Cyclin-dependent kinase 11B (Homo sapiens) (UniProt P21127); experiment: Selectivity interaction (KinomeScan (DiscoverX)) EUB0000655a CDK11B; conditions: at 10 µM
Sequence of Cyclin-dependent kinase 11B (Homo sapiens) (P21127 whole entry): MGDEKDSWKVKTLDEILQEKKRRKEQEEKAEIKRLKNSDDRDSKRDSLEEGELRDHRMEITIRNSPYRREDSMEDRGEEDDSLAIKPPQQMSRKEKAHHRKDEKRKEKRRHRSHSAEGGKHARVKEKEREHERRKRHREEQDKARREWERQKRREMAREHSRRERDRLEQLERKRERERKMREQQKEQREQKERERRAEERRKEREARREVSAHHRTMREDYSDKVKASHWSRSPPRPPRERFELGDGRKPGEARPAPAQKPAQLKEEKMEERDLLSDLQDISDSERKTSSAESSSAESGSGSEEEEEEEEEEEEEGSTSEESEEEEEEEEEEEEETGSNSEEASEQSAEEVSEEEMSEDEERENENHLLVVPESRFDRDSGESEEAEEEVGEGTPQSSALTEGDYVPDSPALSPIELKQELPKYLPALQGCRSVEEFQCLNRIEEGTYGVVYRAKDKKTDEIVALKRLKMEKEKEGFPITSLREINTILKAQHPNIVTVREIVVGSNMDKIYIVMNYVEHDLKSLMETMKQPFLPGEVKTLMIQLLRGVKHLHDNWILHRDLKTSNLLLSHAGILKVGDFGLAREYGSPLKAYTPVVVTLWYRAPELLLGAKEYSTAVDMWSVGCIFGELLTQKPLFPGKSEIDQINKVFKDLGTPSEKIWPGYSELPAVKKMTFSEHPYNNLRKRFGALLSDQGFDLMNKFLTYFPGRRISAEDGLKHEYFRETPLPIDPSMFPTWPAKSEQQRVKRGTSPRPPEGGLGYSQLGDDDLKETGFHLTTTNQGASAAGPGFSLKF

[8] = molecular target: Receptor-type tyrosine-protein kinase FLT3 (Homo sapiens) (UniProt P36888); experiment: Selectivity interaction (KinomeScan (DiscoverX)) EUB0001619a FLT3; conditions: at 1 µM
Sequence of Receptor-type tyrosine-protein kinase FLT3 (Homo sapiens) (P36888 whole entry): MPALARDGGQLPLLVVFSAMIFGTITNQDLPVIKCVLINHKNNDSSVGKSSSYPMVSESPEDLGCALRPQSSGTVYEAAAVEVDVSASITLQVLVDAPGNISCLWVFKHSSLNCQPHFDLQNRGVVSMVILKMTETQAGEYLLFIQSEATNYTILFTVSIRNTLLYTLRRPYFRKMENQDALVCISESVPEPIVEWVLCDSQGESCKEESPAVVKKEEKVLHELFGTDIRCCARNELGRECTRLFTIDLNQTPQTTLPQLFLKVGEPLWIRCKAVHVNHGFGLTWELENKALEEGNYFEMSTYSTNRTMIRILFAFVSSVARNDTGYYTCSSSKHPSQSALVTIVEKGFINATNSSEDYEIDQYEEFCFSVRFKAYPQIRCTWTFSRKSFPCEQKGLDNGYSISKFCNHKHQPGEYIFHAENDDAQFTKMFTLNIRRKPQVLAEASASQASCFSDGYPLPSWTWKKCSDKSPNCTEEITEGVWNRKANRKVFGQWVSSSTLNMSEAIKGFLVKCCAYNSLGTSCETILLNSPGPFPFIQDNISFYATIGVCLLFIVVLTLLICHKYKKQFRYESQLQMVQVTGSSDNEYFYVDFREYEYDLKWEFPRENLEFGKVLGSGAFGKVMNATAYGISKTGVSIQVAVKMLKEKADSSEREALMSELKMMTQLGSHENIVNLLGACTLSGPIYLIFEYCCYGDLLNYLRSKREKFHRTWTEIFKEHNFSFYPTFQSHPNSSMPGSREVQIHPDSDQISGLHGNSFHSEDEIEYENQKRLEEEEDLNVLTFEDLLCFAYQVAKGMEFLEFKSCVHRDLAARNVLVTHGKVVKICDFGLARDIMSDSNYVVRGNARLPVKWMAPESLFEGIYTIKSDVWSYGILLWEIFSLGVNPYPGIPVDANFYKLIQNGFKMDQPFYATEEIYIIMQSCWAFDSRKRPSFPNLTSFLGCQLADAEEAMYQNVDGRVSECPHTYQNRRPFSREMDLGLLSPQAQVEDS

% of control [1]: -0.03%
SMILES: Cn1cc(-n2cnc3c(NCc4nc5cc(Cl)c(Cl)cc5[nH]4)nc(N4CCOCC4)nc32)cn1

% of control [2]: 100%
SMILES: CCN(CC)CCCCNc1ncc2cc(-c3cc(OC)cc(OC)c3)c(NC(=O)NC(C)(C)C)nc2n1

% of control ([3]; at 1 µM): 97%
% of control ([3]; at 5 µM): 108%
SMILES: C=CC(=O)Nc1cccc(C(=O)Nc2ccc(Nc3cc(-c4[nH]c(SC)nc4C)ccn3)cc2)c1

SMILES: Cc1cc(F)c(C(=O)Nc2cccc(-c3nncn3C(C)C)n2)cc1-n1cnc(C2CC2)c1
% of control [4]: 81%

SMILES: COCC(=O)NC/C=C/c1ccc2ncnc(Nc3ccc(Oc4ccc(C)nc4)c(C)c3)c2c1 [CP-724714]
% of control [5]: 97%

SMILES: CN(C)C/C=C/C(=O)Nc1ccc(C(=O)N2CCCC(Nc3ncc(Cl)c(-c4c[nH]c5ccccc45)n3)C2)cc1 (centres undefined)
% of control [6]: 99%

SMILES: CN(C)CCOc1ccc(-c2nc(-c3ccncc3)c(-c3ccc4c(c3)CC/C4=N\O)[nH]2)cc1
% of control [7]: 100%

SMILES: N#Cc1cccc(-c2c[nH]c3ncnc(N4CCOCC4)c23)c1
% of control [8]: 92%
